The values that follow are results of earlier work, collected in paper PMC10215804, “Exploring Alternative Pathways to Target Bacterial Type II Topoisomerases Using NBTI Antibacterials: Beyond Halogen-Bonding Interactions” (Antibiotics, 2023).

Converted amounts (≈) assume the structure as drawn. A value given as a limit tells only on which side of the number the result lay.

One data set deals with T1, S. aureus DNA gyrase (Staphylococcus aureus, UniProt P20831).
T1 construct: purchased Inspiralis (Norwich, UK)
The settings on record: supercoiling inhibition; cited from earlier work.

Another data set deals with T2, human topoisomerase IIα (Homo sapiens, UniProt P11388).
T2 construct: purchased Inspiralis (Norwich, UK)
The settings on record: residual activity at 100 µM compound; cited from earlier work.

The subject of another data set is S. aureus (ATCC 29213). The settings on record: cited from earlier work.
The test system of the next data set is MRSA (QA-11.7). The settings on record: cited from earlier work.
The test system of a further data set is E. coli (ATCC 25922). The settings on record: cited from earlier work.
A further data set deals with E. coli D22. The settings on record: lpxC mutation; cited from earlier work.
The next data set concerns E. coli N43 (CGSC# 5583). The settings on record: AcrA knockout; cited from earlier work.
A further data set deals with P. aeruginosa RDK 184. The settings on record: cited from earlier work.
The next data set concerns E. faecalis RDK 057. The settings on record: cited from earlier work.
For another data set, the system named is VRE. The settings on record: cited from earlier work.
The next data set concerns the target T3, E. coli DNA gyrase (Escherichia coli, UniProt P0AES4).
T3 construct: purchased Inspiralis (Norwich, UK)
The settings on record: supercoiling inhibition; cited from earlier work.

For the next data set, the target named is T4, S. aureus topoIV (Staphylococcus aureus, UniProt P0C1U9).
T4 construct: purchased Inspiralis (Norwich, UK)
The settings on record: relaxation inhibition; cited from earlier work.

The target in a further data set is T5, E. coli topoIV (Escherichia coli, UniProt P0AFI2).
T5 construct: purchased Inspiralis (Norwich, UK)
The settings on record: relaxation inhibition; cited from earlier work.

Another data set concerns MRSA(QA-12.1). Details: method as in PMID 35970069. The settings on record: cited from earlier work.
The test system of another data set is MRSA (QA-11.2). Details: method as in PMID 35970069. The settings on record: cited from earlier work.
The subject of the next data set is E. coli ESBL QA-11.3. The arrangement: method as in PMID 35970069. The settings on record: cited from earlier work.
In another data set the test system is K. pneumoniae. The arrangement: method as in PMID 35970069. The settings on record: cited from earlier work.
A further data set has as its system A. baumannii. The arrangement: method as in PMID 35970069. The settings on record: cited from earlier work.

T4 sequence (P0C1U9 whole entry): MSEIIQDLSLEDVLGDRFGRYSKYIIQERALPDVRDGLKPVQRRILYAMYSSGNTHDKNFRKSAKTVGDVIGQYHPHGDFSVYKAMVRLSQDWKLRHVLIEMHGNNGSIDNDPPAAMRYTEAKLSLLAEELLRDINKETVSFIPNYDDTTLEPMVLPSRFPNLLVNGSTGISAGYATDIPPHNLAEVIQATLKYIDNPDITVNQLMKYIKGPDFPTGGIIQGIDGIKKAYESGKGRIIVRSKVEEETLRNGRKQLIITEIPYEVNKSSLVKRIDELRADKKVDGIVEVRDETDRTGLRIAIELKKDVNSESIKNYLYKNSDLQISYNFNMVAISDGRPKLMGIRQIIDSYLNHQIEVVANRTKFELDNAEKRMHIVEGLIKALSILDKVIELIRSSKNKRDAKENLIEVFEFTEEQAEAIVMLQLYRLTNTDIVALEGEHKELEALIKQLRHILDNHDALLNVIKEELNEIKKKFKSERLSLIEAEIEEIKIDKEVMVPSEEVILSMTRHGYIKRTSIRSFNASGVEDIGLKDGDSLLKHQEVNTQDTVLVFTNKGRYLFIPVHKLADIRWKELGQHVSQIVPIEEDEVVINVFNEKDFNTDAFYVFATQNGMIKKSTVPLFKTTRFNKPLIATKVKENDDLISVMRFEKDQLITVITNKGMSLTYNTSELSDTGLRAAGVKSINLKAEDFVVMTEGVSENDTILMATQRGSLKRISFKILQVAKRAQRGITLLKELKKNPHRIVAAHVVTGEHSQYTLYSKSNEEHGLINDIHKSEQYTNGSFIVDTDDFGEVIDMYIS
T4 sequence (P0C1S7 whole entry partner): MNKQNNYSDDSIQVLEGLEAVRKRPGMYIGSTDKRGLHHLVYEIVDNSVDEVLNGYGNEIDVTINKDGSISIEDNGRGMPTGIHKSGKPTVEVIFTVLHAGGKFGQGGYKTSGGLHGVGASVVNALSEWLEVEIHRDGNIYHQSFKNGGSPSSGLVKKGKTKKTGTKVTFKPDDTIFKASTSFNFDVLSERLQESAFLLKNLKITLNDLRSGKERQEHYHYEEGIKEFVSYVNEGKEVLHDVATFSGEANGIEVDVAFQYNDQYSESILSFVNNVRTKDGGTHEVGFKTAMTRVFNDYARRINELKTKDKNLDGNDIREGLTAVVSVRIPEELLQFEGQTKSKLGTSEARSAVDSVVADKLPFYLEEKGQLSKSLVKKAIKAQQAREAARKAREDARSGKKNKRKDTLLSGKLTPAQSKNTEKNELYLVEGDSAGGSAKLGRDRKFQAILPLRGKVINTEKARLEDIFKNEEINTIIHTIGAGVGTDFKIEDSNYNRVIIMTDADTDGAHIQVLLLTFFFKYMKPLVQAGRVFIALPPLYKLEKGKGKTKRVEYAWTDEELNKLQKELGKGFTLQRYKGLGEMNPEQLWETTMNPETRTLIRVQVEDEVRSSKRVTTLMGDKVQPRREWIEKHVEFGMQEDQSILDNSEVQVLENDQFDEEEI
T2 sequence (P11388 whole entry): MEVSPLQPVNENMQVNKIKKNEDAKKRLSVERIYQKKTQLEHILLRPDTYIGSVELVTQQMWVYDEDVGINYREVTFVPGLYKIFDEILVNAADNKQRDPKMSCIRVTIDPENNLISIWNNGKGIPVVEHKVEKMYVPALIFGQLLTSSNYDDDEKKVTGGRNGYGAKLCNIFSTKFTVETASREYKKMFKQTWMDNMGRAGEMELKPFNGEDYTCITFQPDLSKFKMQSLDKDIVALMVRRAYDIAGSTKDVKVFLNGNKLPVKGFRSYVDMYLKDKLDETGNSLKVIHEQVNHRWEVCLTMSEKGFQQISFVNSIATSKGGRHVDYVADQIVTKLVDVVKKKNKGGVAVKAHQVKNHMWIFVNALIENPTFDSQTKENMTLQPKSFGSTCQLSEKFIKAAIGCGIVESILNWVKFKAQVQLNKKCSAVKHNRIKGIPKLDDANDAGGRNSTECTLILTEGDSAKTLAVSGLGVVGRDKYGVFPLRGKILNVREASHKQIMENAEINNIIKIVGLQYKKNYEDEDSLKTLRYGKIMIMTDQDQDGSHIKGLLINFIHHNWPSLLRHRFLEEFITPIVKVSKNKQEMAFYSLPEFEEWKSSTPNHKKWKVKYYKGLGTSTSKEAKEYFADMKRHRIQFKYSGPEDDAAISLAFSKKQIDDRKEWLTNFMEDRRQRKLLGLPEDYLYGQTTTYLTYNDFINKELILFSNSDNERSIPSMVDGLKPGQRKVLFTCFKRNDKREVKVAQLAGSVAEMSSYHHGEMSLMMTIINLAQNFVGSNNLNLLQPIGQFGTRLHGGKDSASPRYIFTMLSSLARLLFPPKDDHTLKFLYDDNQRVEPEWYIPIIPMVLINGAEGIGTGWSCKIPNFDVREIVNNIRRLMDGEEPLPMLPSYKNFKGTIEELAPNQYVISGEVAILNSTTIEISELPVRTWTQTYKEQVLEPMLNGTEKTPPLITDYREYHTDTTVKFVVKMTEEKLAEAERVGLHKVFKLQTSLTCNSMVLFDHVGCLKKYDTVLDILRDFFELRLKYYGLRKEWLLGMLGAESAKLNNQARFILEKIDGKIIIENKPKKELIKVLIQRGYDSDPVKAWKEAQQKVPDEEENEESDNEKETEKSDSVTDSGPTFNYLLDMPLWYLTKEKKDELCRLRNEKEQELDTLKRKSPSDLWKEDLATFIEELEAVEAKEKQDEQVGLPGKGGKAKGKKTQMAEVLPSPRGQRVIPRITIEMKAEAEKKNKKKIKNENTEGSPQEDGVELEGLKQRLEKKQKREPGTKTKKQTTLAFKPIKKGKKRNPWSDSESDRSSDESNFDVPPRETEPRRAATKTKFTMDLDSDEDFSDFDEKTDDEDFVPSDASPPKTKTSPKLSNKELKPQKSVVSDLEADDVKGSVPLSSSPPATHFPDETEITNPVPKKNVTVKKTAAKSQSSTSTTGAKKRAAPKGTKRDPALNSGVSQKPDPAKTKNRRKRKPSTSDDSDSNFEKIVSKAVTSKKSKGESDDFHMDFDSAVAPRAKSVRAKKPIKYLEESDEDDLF
T5 sequence (P20083 whole entry): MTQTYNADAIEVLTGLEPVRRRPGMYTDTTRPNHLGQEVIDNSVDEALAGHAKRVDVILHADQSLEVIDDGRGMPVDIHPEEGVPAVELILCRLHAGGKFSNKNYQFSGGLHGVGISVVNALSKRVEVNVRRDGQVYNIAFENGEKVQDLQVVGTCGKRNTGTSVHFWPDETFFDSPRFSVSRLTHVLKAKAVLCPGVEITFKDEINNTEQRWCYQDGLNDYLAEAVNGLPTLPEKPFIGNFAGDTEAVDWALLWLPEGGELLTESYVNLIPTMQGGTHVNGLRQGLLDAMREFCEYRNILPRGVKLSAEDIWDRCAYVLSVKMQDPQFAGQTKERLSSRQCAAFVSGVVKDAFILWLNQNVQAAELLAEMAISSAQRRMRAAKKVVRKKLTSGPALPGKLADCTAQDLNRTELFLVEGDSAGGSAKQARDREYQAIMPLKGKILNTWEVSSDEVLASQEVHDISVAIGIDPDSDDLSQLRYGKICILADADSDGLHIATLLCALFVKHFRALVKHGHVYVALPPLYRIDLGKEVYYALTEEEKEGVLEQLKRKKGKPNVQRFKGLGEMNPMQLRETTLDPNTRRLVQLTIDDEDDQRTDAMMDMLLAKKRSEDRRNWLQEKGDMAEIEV
T5 sequence (P0AFI2 whole entry): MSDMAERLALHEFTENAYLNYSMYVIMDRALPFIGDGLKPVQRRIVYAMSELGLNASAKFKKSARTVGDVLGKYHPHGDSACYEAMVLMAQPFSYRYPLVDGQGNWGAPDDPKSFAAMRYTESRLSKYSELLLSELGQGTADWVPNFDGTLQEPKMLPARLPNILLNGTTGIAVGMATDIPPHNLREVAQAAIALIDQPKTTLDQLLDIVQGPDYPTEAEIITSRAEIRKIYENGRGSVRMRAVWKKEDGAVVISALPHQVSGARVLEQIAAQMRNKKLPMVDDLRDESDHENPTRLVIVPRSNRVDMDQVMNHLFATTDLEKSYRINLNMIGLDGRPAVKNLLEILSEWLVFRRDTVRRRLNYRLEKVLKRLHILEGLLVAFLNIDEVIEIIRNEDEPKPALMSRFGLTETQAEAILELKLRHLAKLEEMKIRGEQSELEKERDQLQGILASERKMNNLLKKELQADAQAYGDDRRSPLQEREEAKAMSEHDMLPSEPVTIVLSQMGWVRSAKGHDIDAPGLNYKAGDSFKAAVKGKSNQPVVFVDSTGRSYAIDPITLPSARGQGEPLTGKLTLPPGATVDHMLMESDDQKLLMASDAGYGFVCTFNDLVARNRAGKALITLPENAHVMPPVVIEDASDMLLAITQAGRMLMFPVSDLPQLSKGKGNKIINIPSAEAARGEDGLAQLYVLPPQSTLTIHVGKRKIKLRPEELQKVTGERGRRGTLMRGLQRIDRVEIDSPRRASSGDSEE

Regarding `COc1ccc2nccc(CCN3CCC(NCc4ccc(Br)cc4)CC3)c2n1` [Compound 1], the 50% inhibitory concentration (IC50) at S. aureus DNA gyrase was 26 ± 10 nM. Also, at human topoisomerase IIα, the “Human TopoIIα (% RA at 100 µM)” value is given as 98 ± 3%. Besides, the “MIC S. aureus (ATCC 29213)” value in the data set with S. aureus (ATCC 29213) is 0.125 µg/mL (≈ 0.274 µM). Also, the “MIC MRSA (QA-11.7)” value with MRSA (QA-11.7) was 0.5 µg/mL (≈ 1.1 µM). Also, in the data set with E. coli (ATCC 25922), the “MIC E. coli (ATCC 25922)” value is 2 µg/mL (≈ 4.39 µM). Besides, the “MIC E. coli D22” value in the data set on E. coli D22 is 0.125 µg/mL (≈ 0.274 µM). Further, the “MIC E. coli N43 (CGSC# 5583)” value with E. coli N43 (CGSC# 5583) was 0.125 µg/mL (≈ 0.274 µM). For the same molecule, in the data set with P. aeruginosa RDK 184, the “MIC P. aeruginosa RDK 184” value was 128 µg/mL (≈ 281 µM). Also, the “MIC E. faecalis RDK 057” value in the data set on E. faecalis RDK 057 is recorded as 0.5 µg/mL (≈ 1.1 µM). The “MIC VRE” value in the data set on VRE is listed as 2 µg/mL (≈ 4.39 µM).
As for `COc1ccc2nccc(OC[C@H]3CC[C@H](NCc4ccc(Br)cc4)CO3)c2n1` [Compound 3], the IC50 on S. aureus DNA gyrase is 294 ± 100 nM; on E. coli DNA gyrase it was 7740 ± 2310 nM; on S. aureus topoIV, above 100000 nM; on E. coli topoIV, 131 ± 40 nM. In addition, on human topoisomerase IIα, the “Human TopoIIα (% RA at 100 µM)” value is given as 105 ± 1%. For the same molecule, the “MIC S. aureus (ATCC 29213)” value in the data set with S. aureus (ATCC 29213) is 0.125 µg/mL (≈ 0.273 µM). In addition, the “MIC MRSA (QA-11.7)” value in the data set on MRSA (QA-11.7) is reported as 0.5 µg/mL (≈ 1.09 µM). The “MIC MRSA(QA-12.1)” value in the data set with MRSA(QA-12.1) is on record as 0.125 µg/mL (≈ 0.273 µM). Further, the “MIC MRSA (QA-11.2)” value with MRSA (QA-11.2) was 0.25 µg/mL (≈ 0.545 µM). Further, the “MIC E. coli (ATCC 25922)” value in the data set on E. coli (ATCC 25922) was 128 µg/mL (≈ 279 µM). In addition, the “MIC E. coli D22” value in the data set with E. coli D22 is on record as 8 µg/mL (≈ 17.5 µM). Moreover, the “MIC E. coli N43 (CGSC# 5583)” value in the data set on E. coli N43 (CGSC# 5583) is recorded as 8 µg/mL (≈ 17.5 µM). Moreover, the “MIC E. coli ESBL QA-11.3” value with E. coli ESBL QA-11.3 is on record as above 128 µg/mL. In addition, the “MIC K. pneumoniae” value in the data set with K. pneumoniae is recorded as 128 µg/mL (≈ 279 µM). Also, the “MIC P. aeruginosa RDK 184” value in the data set with P. aeruginosa RDK 184 is recorded as 128 µg/mL (≈ 279 µM). Besides, the “MIC E. faecalis RDK 057” value in the data set on E. faecalis RDK 057 is on record as 2 µg/mL (≈ 4.36 µM). Also, the “MIC VRE” value with VRE is listed as 1 µg/mL (≈ 2.18 µM). The “MIC A. baumannii” value in the data set with A. baumannii is above 128 µg/mL.
In the case of `COc1ccc2nccc(C(O)CC3CC[C@H](NCc4ccc(Br)cc4)CO3)c2n1` (stereo partly shown) [Compound 4], the 50% inhibitory concentration (IC50) at S. aureus DNA gyrase is 65 ± 2 nM; on E. coli DNA gyrase it was 1570 ± 404 nM; on S. aureus topoIV, above 100000 nM; at E. coli topoIV it was 52 ± 3 nM. Besides, the “Human TopoIIα (% RA at 100 µM)” value on human topoisomerase IIα was 106 ± 0%. In addition, the “MIC S. aureus (ATCC 29213)” value with S. aureus (ATCC 29213) was 0.016 µg/mL (≈ 0.0339 µM). The “MIC MRSA (QA-11.7)” value in the data set on MRSA (QA-11.7) was 0.016 µg/mL (≈ 0.0339 µM). Also, the “MIC MRSA(QA-12.1)” value in the data set with MRSA(QA-12.1) was 0.016 µg/mL (≈ 0.0339 µM). In addition, in the data set with MRSA (QA-11.2), the “MIC MRSA (QA-11.2)” value was 0.031 µg/mL (≈ 0.0656 µM). The “MIC E. coli (ATCC 25922)” value with E. coli (ATCC 25922) is reported as 16 µg/mL (≈ 33.9 µM). In addition, the “MIC E. coli D22” value in the data set on E. coli D22 is 1 µg/mL (≈ 2.12 µM). Moreover, the “MIC E. coli N43 (CGSC# 5583)” value with E. coli N43 (CGSC# 5583) is reported as 0.25 µg/mL (≈ 0.529 µM). Moreover, the “MIC E. coli ESBL QA-11.3” value in the data set with E. coli ESBL QA-11.3 is reported as above 128 µg/mL. Moreover, the “MIC K. pneumoniae” value in the data set on K. pneumoniae was 128 µg/mL (≈ 271 µM). In the data set with P. aeruginosa RDK 184, the “MIC P. aeruginosa RDK 184” value is 128 µg/mL (≈ 271 µM). Further, in the data set on E. faecalis RDK 057, the “MIC E. faecalis RDK 057” value is 0.5 µg/mL (≈ 1.06 µM). The “MIC VRE” value in the data set on VRE is recorded as 0.032 µg/mL (≈ 0.0677 µM). In addition, in the data set on A. baumannii, the “MIC A. baumannii” value is given as above 128 µg/mL.
`COc1ccc2nccc(OCC3CCC(NCc4ccc(Br)cc4)CC3)c2n1` (stereo not shown) [Compound 2]: the IC50 at S. aureus DNA gyrase is 372 ± 2 nM; at E. coli DNA gyrase, 4800 ± 774 nM; at S. aureus topoIV, above 100000 nM; at E. coli topoIV, 495 ± 184 nM. The “Human TopoIIα (% RA at 100 µM)” value on human topoisomerase IIα is reported as 106 ± 3%. The “MIC S. aureus (ATCC 29213)” value in the data set with S. aureus (ATCC 29213) is listed as 0.125 µg/mL (≈ 0.274 µM). In addition, the “MIC MRSA (QA-11.7)” value in the data set with MRSA (QA-11.7) is 0.25 µg/mL (≈ 0.548 µM). Moreover, the “MIC MRSA(QA-12.1)” value with MRSA(QA-12.1) is 0.25 µg/mL (≈ 0.548 µM). In the data set on MRSA (QA-11.2), the “MIC MRSA (QA-11.2)” value is on record as 0.5 µg/mL (≈ 1.1 µM). Also, the “MIC E. coli (ATCC 25922)” value in the data set with E. coli (ATCC 25922) is on record as 64 µg/mL (≈ 140 µM). Also, the “MIC E. coli D22” value in the data set with E. coli D22 is 8 µg/mL (≈ 17.5 µM). The “MIC E. coli N43 (CGSC# 5583)” value with E. coli N43 (CGSC# 5583) is recorded as 1 µg/mL (≈ 2.19 µM). Further, the “MIC E. coli ESBL QA-11.3” value in the data set on E. coli ESBL QA-11.3 was 128 µg/mL (≈ 280 µM). Besides, the “MIC K. pneumoniae” value in the data set on K. pneumoniae is 128 µg/mL (≈ 280 µM). In addition, in the data set on P. aeruginosa RDK 184, the “MIC P. aeruginosa RDK 184” value was 32 µg/mL (≈ 70.1 µM). Also, the “MIC E. faecalis RDK 057” value in the data set on E. faecalis RDK 057 was 1 µg/mL (≈ 2.19 µM). For the same molecule, the “MIC VRE” value with VRE is on record as 1 µg/mL (≈ 2.19 µM). In the data set with A. baumannii, the “MIC A. baumannii” value is recorded as 128 µg/mL (≈ 280 µM).

One may read the IC50 as the concentration at which inhibition is half-maximal.
